Values of other authors as cited in patent US8097636B2, “Heterocyclic derivatives as modulators of ion channels” (Vertex Pharmaceuticals Incorporated, priority 2007, dated 2012).

Biological target: NaV1.3 (Homo sapiens, UniProt Q9NY46)
Details: read-out: TTX IC50

NaV1.3, sequence (Q9NY46 whole entry, looked up): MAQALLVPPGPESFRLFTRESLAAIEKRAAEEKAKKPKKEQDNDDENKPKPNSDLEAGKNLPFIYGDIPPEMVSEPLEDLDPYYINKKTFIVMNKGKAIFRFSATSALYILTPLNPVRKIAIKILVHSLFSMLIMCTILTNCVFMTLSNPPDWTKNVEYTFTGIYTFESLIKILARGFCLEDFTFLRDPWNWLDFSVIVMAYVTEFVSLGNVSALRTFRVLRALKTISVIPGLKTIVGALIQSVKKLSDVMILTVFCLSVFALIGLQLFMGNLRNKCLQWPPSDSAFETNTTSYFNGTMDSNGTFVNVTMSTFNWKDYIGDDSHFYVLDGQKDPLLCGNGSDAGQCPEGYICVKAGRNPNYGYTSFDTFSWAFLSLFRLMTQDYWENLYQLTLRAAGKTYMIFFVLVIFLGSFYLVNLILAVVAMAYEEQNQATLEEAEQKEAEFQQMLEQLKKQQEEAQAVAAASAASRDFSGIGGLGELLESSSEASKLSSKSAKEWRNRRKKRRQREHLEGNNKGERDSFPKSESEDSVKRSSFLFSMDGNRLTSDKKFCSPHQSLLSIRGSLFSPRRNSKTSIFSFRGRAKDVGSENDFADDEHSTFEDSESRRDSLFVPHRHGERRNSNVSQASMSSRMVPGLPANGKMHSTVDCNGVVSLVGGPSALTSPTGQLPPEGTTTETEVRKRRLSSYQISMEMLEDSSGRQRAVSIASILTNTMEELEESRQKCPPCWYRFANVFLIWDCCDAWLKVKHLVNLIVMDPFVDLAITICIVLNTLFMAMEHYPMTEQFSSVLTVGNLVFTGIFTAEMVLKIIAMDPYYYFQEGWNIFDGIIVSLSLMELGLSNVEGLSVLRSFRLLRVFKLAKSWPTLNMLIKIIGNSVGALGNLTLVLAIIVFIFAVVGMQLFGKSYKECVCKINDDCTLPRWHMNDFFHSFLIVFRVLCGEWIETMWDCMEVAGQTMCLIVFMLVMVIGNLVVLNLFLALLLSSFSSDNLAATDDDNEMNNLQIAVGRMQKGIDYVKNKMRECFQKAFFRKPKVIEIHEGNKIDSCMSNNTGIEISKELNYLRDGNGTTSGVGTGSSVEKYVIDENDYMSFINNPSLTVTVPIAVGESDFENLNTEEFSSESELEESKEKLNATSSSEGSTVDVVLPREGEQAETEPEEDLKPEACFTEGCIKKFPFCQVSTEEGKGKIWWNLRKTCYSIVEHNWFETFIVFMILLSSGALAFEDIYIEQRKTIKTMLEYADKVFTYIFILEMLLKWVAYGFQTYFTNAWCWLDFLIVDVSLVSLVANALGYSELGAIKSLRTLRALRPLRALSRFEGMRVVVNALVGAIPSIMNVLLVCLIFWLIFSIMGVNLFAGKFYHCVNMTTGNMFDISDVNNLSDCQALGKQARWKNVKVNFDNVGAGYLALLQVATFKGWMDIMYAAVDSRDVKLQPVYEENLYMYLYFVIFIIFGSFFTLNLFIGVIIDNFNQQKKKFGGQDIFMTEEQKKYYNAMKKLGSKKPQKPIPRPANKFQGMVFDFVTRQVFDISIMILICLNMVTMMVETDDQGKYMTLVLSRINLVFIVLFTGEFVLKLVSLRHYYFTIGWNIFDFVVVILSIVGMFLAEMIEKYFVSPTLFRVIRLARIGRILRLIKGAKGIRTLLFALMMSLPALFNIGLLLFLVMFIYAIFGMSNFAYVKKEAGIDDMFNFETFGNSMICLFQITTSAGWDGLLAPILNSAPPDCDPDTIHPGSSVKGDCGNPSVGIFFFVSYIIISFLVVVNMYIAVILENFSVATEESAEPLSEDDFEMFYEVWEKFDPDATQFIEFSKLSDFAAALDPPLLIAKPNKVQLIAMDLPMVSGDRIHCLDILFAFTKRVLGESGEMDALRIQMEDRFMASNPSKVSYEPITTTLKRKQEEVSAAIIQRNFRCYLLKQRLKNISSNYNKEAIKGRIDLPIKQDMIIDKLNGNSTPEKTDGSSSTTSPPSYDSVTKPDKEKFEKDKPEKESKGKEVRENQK

In the case of `NC1=N[C@H](O)[C@H]2[C@H]3O[C@]4(O)O[C@@H]([C@@H](O)[C@@]2(N1)[C@@H]4O)[C@]3(O)CO` [TTX, tetrodotoxin], the IC50 is given as 15 nM.
